Data set [1] addresses T1, MAGL (Homo sapiens, UniProt Q99685).
T1 sequence (Q99685 1-303): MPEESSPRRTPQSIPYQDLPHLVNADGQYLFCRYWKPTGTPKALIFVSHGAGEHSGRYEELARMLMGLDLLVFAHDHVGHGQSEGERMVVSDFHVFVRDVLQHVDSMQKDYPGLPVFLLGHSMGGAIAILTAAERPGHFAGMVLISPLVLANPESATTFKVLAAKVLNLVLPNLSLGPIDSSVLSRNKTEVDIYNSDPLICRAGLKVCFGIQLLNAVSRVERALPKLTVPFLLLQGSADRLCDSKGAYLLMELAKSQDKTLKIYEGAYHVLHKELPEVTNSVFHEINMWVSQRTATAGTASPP
The data set can be described thus: In vitro competitive activity-based protein profiling, PC3 human cell membrane proteomes. Further details: endogenous in cells; host or cells: PC3 human cells (membrane proteome). In kind it is biochemical. Particulars: human PC3 membrane proteome; for inhibition at 1 µM: read-out: MAGL % inh. 1 μM (human PC3). A digest of the protocol:
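Competitive ABPP in PC3 membrane proteome (2.0 mg/mL protein): inhibitors preincubated 30 min at 37° C, then JW912-Bodipy probe added for 30 min at room temperature. MAGL band fluorescence after SDS-PAGE normalised to DMSO; IC50 from 4-parameter sigmoidal fit.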

In data set [2] the test system is cryopreserved human hepatocytes. In words: In vitro human hepatocyte stability. The class given is in vitro ADME. Particulars: human hepatocytes 0.5×10^6 cells/mL, 1 μM. As for the experimental part:
The metabolic stability of test articles (1 μM) in commercially sourced, pooled donor, cryopreserved human hepatocytes (0.5×10^6 cells/mL) was determined in duplicate. The CLint reactions (250 μL) were initiated by addition of test compound. Aliquots (25 μL) were taken at 0, 15, 30, 45, 60, 90, 120 and 240 minutes and then protein crashed with ice-cold acetonitrile containing internal standard then centrifuged (3220 g for 25 minutes). Supernatant was used for LC-MS/MS analysis. The in vitro half-life (in vitro t½) was determined from the slope value: in vitro t1/2=−0.693/k. Conversion of the in vitro t1/2 (in min) into the scale-up unbound intrinsic clearance (Scaled-up unbound CLint, in mL/min/kg) was done using the following equation (mean of duplicate determinations), with data shown in Table 5: Scaled-up unbound CLint=kV/N×scaling factor. V=incubation volume (0.25 mL); N=number of hepatocytes per well ([…]). Scaling factors for in vivo intrinsic clearance prediction are listed below: […]

The target of data set [3] is T1, MAGL. The data set can be described thus: In vitro competitive substrate hydrolysis enzyme activity assay (pNPA), HEK293 cell lysates. Particulars: HEK293 lysate. More on the design: expressed in transfected cells; host or cells: HEK293. The class given is biochemical. A digest of the protocol:
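Lysates of HEK293 cells expressing human MAGL (~1.2 μg protein) preincubated 30 min at 25° C with inhibitor in 50 mM HEPES pH 7.0, 200 mM KCl, 1 mM EDTA. pNPA substrate then added (2× stock 2.5 mM), and A405 followed for 20 min at 25° C. Rates normalized to DMSO, and IC50 from 4-parameter fit.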

The structures appear in SMILES notation.

As a reminder, the IC50 is the concentration that inhibits the measured activity by half. The low end stands for greater potency in that assay, the high end for weaker potency in that assay. As to `O=C(Nc1cccnc1)[C@H]1CC12CCN(C(=O)OC(C(F)(F)F)C(F)(F)F)CC2` (single isomer, unassigned) [Example 2], at MAGL [1], the inhibition at 1 µM turned out to be 100% and the IC50 was determined as 0.002 µM. Further, the “Scaled-up unbound CLint” value in data set [2] is on record as 34.8 mL/min/kg. The IC50 on MAGL [3] was found to be 0.00289 µM.
The compound `CP(C)(=O)c1ccc(NC(=O)C2CC23CCN(C(=O)OC(C(F)(F)F)C(F)(F)F)CC3)cn1` (single isomer, unassigned) [Example 20, 1,1,1,3,3,3-Hexafluoropropan-2-yl (R or S)-1-((6-(dimethylphosphoryl)pyridin-3-yl)carbamoyl)-6-azaspiro[2.5]octane-6-carboxylate] came in with a half-maximal inhibitory concentration (IC50) on MAGL [1] of 0.029 µM. Further, the “Scaled-up unbound CLint” value in data set [2] was determined as 0.85 mL/min/kg.
In the case of `O=C(Nc1ccncc1)C1CC12CCN(C(=O)OC(C(F)(F)F)C(F)(F)F)CC2` (single isomer, unassigned) [Example 24, 1,1,1,3,3,3-Hexafluoropropan-2-yl (R or S)-1-(pyridin-4-ylcarbamoyl)-6-azaspiro[2.5]octane-6-carboxylate], on MAGL [1], the half-maximal inhibitory concentration (IC50) is 0.0024 µM. For the same compound, the “Scaled-up unbound CLint” value in data set [2] is listed as 11.9 mL/min/kg.
Turning to `O=C(Nc1ccc(-n2cccn2)nc1)C1CC12CCN(C(=O)OC(C(F)(F)F)C(F)(F)F)CC2` (single isomer, unassigned) [Example 29, 1,1,1,3,3,3-Hexafluoropropan-2-yl (R or S)-1-((6-(1H-pyrazol-1-yl)pyridin-3-yl)carbamoyl)-6-azaspiro[2.5]octane-6-carboxylate], the IC50 on MAGL [1] came out at 0.003 µM. Besides, in data set [2], the “Scaled-up unbound CLint” value was 32.74 mL/min/kg.
For `O=C(Nc1cncc(F)c1)C1CC12CCN(C(=O)OC(C(F)(F)F)C(F)(F)F)CC2` (single isomer, unassigned) [Example 40, 1,1,1,3,3,3-hexafluoropropan-2-yl (R or S)-1-((5-fluoropyridin-3-yl)carbamoyl)-6-azaspiro[2.5]octane-6-carboxylate], the values for the IC50 on MAGL [1] and on MAGL [3] were 0.0027 µM and 0.00343 µM, respectively. In addition, the “Scaled-up unbound CLint” value in data set [2] came out at 43.25 mL/min/kg.
Consider `O=C(Nc1cncnc1)C1CC12CCN(C(=O)OC(C(F)(F)F)C(F)(F)F)CC2` (single isomer, unassigned) [Example 96, 1,1,1,3,3,3-hexafluoropropan-2-yl (R or S)-1-(pyrimidin-5-ylcarbamoyl)-6-azaspiro[2.5]octane-6-carboxylate], for which the inhibition at 1 µM on MAGL [1] stood at 100%. Also, the values for the half-inhibitory concentration (IC50) at MAGL [1] and at MAGL [3] were 0.0193 µM and 0.0489 µM, respectively. Further, the “Scaled-up unbound CLint” value in data set [2] worked out at 17.09 mL/min/kg.
Regarding `Cc1cnc(NC(=O)C2CC23CCN(C(=O)OC(C(F)(F)F)C(F)(F)F)CC3)cn1` (single isomer, unassigned) [Example 112, 1,1,1,3,3,3-hexafluoropropan-2-yl (R or S)-1-((5-methylpyrazin-2-yl)carbamoyl)-6-azaspiro[2.5]octane-6-carboxylate], on MAGL [1], the half-maximal inhibitory concentration (IC50) turned out to be 0.0042 µM. In addition, the “Scaled-up unbound CLint” value in data set [2] was 9.59 mL/min/kg.
`O=C(NCC1CCOCC1)[C@H]1CC12CCN(C(=O)OC(C(F)(F)F)C(F)(F)F)CC2` (single isomer, unassigned) [Example 117] yielded an IC50 on MAGL [1] of 0.0047 µM. Further, the “Scaled-up unbound CLint” value in data set [2] came out at 20.55 mL/min/kg.
For the compound `Cn1ccc(NC(=O)C2CC23CCN(C(=O)OC(C(F)(F)F)C(F)(F)F)CC3)n1` (single isomer, unassigned) [Example 127, 1,1,1,3,3,3-hexafluoropropan-2-yl (R or S)-1-((1-methyl-1H-pyrazol-3-yl)carbamoyl)-6-azaspiro[2.5]octane-6-carboxylate], at MAGL [1], the IC50 is 0.019 µM. Moreover, the “Scaled-up unbound CLint” value in data set [2] was determined as 9.51 mL/min/kg.
On to `CC1(NC(=O)C2CC23CCN(C(=O)OC(C(F)(F)F)C(F)(F)F)CC3)CCOCC1` (single isomer, unassigned) [Example 132, 1,1,1,3,3,3-hexafluoropropan-2-yl (R or S)-1-((4-methyltetrahydro-2H-pyran-4-yl)carbamoyl)-6-azaspiro[2.5]octane-6-carboxylate], for which the IC50 at MAGL [1] was found to be 0.027 µM. Further, the “Scaled-up unbound CLint” value in data set [2] was found to be 44.18 mL/min/kg.
Taken in the same sequence, the figures for `Cn1nccc1NC(=O)C1CC12CCN(C(=O)OC(C(F)(F)F)C(F)(F)F)CC2` (single isomer, unassigned) [Example 135, 1,1,1,3,3,3-hexafluoropropan-2-yl (R or S)-1-((1-methyl-1H-pyrazol-5-yl)carbamoyl)-6-azaspiro[2.5]octane-6-carboxylate] were 0.015 µM and 16.79 mL/min/kg.
On MAGL [1], `O=C(Nc1nccs1)C1CC12CCN(C(=O)OC(C(F)(F)F)C(F)(F)F)CC2` (single isomer, unassigned) [Example 138, 1,1,1,3,3,3-hexafluoropropan-2-yl (R or S)-1-(thiazol-2-ylcarbamoyl)-6-azaspiro[2.5]octane-6-carboxylate] came in with a 50% inhibitory concentration (IC50) of 0.001 µM. The “Scaled-up unbound CLint” value in data set [2] was 40.48 mL/min/kg.
Turning to `O=C(NCc1ccccc1)[C@H]1CC12CCN(C(=O)OC(C(F)(F)F)C(F)(F)F)CC2` (single isomer, unassigned) [Example 150], at MAGL [1], the IC50 was found to be 0.0031 µM. In data set [2], the “Scaled-up unbound CLint” value was found to be 88.79 mL/min/kg.
As to `CC1(CNC(=O)C2CC23CCN(C(=O)OC(C(F)(F)F)C(F)(F)F)CC3)CCOCC1` (single isomer, unassigned) [Example 168, 1,1,1,3,3,3-hexafluoropropan-2-yl (R or S)-1-(((4-methyltetrahydro-2H-pyran-4-yl)methyl)carbamoyl)-6-azaspiro[2.5]octane-6-carboxylate], the IC50 on MAGL [1] worked out at 0.0074 µM. Further, in data set [2], the “Scaled-up unbound CLint” value was determined as 61.36 mL/min/kg.
For `CS(=O)(=O)Nc1ccc(NC(=O)C2CC23CCN(C(=O)OC(C(F)(F)F)C(F)(F)F)CC3)cn1` (single isomer, unassigned) [Example 181, 1,1,1,3,3,3-hexafluoropropan-2-yl (R or S)-1-((6-(methylsulfonamido)pyridin-3-yl)carbamoyl)-6-azaspiro[2.5]octane-6-carboxylate], on MAGL [1], the IC50 stood at 0.0305 µM. Besides, the “Scaled-up unbound CLint” value in data set [2] is recorded as 1.94 mL/min/kg.

The values above are taken from patent US20240018120A1, “MAGL INHIBITORS” (H. LUNDBECK A/S, priority 2020, published 2024).
